Test results as given in paper PMC12119275 (Frontiers in Molecular Biosciences, 2025).

What was measured:
[1] = system: B.1.617.2 (delta) SARS-CoV-2pp; assay: microbe, parasite or virus in culture; assay type: cell-based; conditions: Severe acute respiratory syndrome coronavirus 2, HEK293, 48 h, read-out: EC50 B.1.617.2 (delta) SARS-CoV-2pp
[2] = system: B.1.351 (beta) SARS-CoV-2pp; assay: microbe, parasite or virus in culture; assay type: cell-based; conditions: Severe acute respiratory syndrome coronavirus 2, HEK293, 48 h, read-out: EC50 B.1.351 (beta) SARS-CoV-2pp
[3] = system: SARS-CoV-2; conditions: ref Dittmar et al., 2021; cited from earlier work
[4] = system: BA.2 SARS-CoV-2pp; assay: microbe, parasite or virus in culture; assay type: cell-based; conditions: Severe acute respiratory syndrome coronavirus 2, HEK293, 48 h, read-out: EC50 BA.2 SARS-CoV-2pp
[5] = Pharmacokinetics analysis in mice; conditions: C57 Bl/6, mouse, plasma, po
[6] = system: MERSpp; assay: microbe, parasite or virus in culture; assay type: cell-based, MERS; conditions: Middle East respiratory syndrome-related coronavirus, HeLa, 48 h, read-out: EC50 MERSpp
[7] = system: SARS-CoV-2; assay: microbe, parasite or virus in culture; assay type: cell-based; conditions: Severe acute respiratory syndrome coronavirus 2, A549, read-out: IC50, inhibition of SARS-CoV-2 infection of A549-hACE2 cells
[8] = system: SARS-CoV-2pp; assay: microbe, parasite or virus in culture; assay type: cell-based; conditions: for EC50: Severe acute respiratory syndrome coronavirus 2, HEK293, 48 h, read-out: EC50 SARS-CoV-2pp; for IC50: Severe acute respiratory syndrome coronavirus 2, HEK293, read-out: IC50, inhibition of SARS-CoV-2pp infection of HEK-293-hACE2 cells
[9] = system: B.1.1.7 (alpha) SARS-CoV-2pp; assay: microbe, parasite or virus in culture; assay type: cell-based; conditions: Severe acute respiratory syndrome coronavirus 2, HEK293, 48 h, read-out: EC50 B.1.1.7 (alpha) SARS-CoV-2pp
[10] = system: SARS-CoV-1pp; assay: microbe, parasite or virus in culture; assay type: cell-based; conditions: Severe acute respiratory syndrome coronavirus, HEK293, 48 h, read-out: EC50 SARS-CoV-1pp
[11] = system: COVID-19; conditions: Phase 2 clinical trial; ref BerGenBio, 2022; cited from earlier work
[12] = system: A549 cells; assay: A549 cell vacuolization analysis (phase contrast); conditions: 5 µM, 24 h
[13] = system: B.1.1.529 (omicron) SARS-CoV-2pp; assay: microbe, parasite or virus in culture; assay type: cell-based; conditions: Severe acute respiratory syndrome coronavirus 2, HEK293, 48 h, read-out: EC50 B.1.1.529 (omicron) SARS-CoV-2pp
[14] = system: A549 cells; assay: A549 cell phospholipidosis (NBD-PE staining assay); conditions: 24 h, dose-range; amiodarone positive control
[15] = system: B.1.1.28 (gamma) SARS-CoV-2pp; assay: microbe, parasite or virus in culture; assay type: cell-based; conditions: Severe acute respiratory syndrome coronavirus 2, HEK293, 48 h, read-out: EC50 B.1.1.28 (gamma) SARS-CoV-2pp
[16] = system: SARS CoV-2 2019-nCoV/USA-WA1/2020; assay: Efficacy in SARS-CoV2 infected K18-hACE2 mice (lung viral load by plaque assay); assay type: in vivo; conditions: 2 h before and 24 h after infection, 3 days post-infection; for effect on SARS-CoV2 viral load in lung homogenates: 100 mg/kg p.o. at 24 h before
[17] = biological target: T1, AXL kinase (Homo sapiens, UniProt P30530); assay: AXL kinase assay (Reaction Biology Hot Spot, 33P-ATP); assay type: biochemical
T1 construct: purchased Reaction Biology
T1 sequence (P30530 26-894): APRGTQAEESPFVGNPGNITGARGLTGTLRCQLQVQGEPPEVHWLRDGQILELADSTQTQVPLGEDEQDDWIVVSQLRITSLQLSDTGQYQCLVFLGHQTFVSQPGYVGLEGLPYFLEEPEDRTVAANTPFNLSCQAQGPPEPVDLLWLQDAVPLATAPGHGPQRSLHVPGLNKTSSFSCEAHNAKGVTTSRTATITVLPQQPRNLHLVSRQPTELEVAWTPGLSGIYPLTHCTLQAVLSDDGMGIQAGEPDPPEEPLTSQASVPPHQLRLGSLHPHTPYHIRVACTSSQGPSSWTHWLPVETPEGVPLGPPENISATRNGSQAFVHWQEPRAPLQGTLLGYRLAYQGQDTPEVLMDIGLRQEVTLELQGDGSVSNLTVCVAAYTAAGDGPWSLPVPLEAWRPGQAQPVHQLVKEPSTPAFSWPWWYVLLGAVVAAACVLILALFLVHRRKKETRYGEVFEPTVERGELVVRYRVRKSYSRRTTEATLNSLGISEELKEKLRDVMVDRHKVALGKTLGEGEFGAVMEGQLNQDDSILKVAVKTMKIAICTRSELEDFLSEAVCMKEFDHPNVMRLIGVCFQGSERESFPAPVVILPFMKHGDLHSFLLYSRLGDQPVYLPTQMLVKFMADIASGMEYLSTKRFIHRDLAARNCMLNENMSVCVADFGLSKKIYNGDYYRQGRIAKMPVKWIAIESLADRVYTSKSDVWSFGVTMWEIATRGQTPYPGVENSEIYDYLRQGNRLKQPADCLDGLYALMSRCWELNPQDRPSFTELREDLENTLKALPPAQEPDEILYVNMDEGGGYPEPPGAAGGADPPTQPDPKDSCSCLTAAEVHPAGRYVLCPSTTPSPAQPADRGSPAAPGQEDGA

SMILES | EC50 [1] [nM] | EC50 [2] [nM] | EC50 [4] [nM] | AUC ([5]; 100 mg/kg) [ng·h/mL] | Cmax ([5]; 100 mg/kg) [ng/mL] | Tmax ([5]; 100 mg/kg) [h] | EC50 [6] [nM] | IC50 [7] [nM] | EC50 [8] [nM] | IC50 [8] [nM] | EC50 [9] [nM] | EC50 [10] [nM] | vacuolization in human lung A549 cells [12] | EC50 [13] [nM] | phospholipidosis in A549 cells (NBD-PE staining) [14] | EC50 [15] [nM] | effect on SARS-CoV2 viral load in lung homogenates [16] | further results
Nc1nc(Nc2ccc3c(c2)CC[C@@H](N2CCCC2)CC3)nn1-c1cc2c(nn1)-c1ccccc1CCC2 [Bemcentinib, bemcentinib, reference compound] | 380 ± 140 | 390 ± 140 | 160 ± 30 | 33300 | 1760 | 13 | 90 ± 10 | 70 | 5680 ± 3760 | 5700 | 430 ± 180 | 910 ± 10 | induced significant vacuolization | 210 ± 10 | neither compound demonstrated phospholipidosis | 420 ± 120 | failed to reduce SARS-CoV2 viral load | inhibition of SARS-CoV-2 infection of human lung Calu-3 cells [3]: inhibits SARS-CoV-2 infection of human lung Calu-3 cells; clinical response in patients hospitalized with COVID-19 [11]: improved clinical response and key secondary endpoints
FC(F)(F)c1nc(Nc2ccc3c(c2)CCC(N2CCCC2)CC3)n(-c2cc3c(nn2)-c2ccccc2CCC3)n1 (centres unmarked) [WYS-694] | 130 ± 90 | 180 ± 110 | 450 ± 440 | – | – | – | – | – | 80 ± 30 | – | 120 ± 70 | 820 ± 1020 | – | 130 ± 120 | – | 160 ± 150 | – | AUC ([5]; 30 mg/kg): 10700 ng·h/mL; Cmax ([5]; 30 mg/kg): 556 ng/mL; Tmax ([5]; 30 mg/kg): 24 h; fold more potent than WYS-633 in inhibiting viral entry [8]: 12.5 fold; reduction of SARS-CoV-2 viral load in lung homogenates ([16]; 30 mg/kg p.o. at 24 h before): more than 4 fold
c1ccc2c(c1)CCCc1cc(-c3nnc(Nc4ccc5c(c4)CCC(N4CCCC4)CC5)o3)nnc1-2 (centres unmarked) [WYS-633] | 1050 ± 370 | 1250 ± 50 | 680 ± 290 | 7920 | 950 | 2 | 310 ± 120 | 610 | 2520 ± 2260 | 2520 | 1230 ± 580 | 750 ± 70 | did not | 1030 ± 650 | neither compound demonstrated phospholipidosis | 1660 ± 710 | failed to reduce SARS-CoV2 viral load | activity against AXL kinase (in words) [17]: inactive
